“Also recorded” adds a separate entry of the source.
How the values were obtained:
[1] = molecular target: T1, calf intestinal alkaline phosphatase (CIAP) (Bos taurus, UniProt P19111); experiment: Alkaline phosphatase inhibition assay (spectrophotometric, p-NPP substrate); type: biochemical; conditions: for IC50: CIAP, p-NPP substrate, pH 9.5, 37 °C, mean ± SEM
Method: As previously mentioned, spectrophotometric analysis was used to evaluate the activity of calf intestinal alkaline phosphatase (CIAP). The reaction mixture contained 50 mM Tris-HCl buffer (5 mM MgCl2, 0.1 mM ZnCl2 pH 9.5), the 10 µL compound, and it was preincubated for 10 min by adding 5 µL of CIAP (0.025 U/mL). Then, 10 µL of a substrate (0.5 mM p-NPP (para nitrophenyl phosphate disodium salt)) was delivered to initiate the response, and therefore the assay mixture became incubated once more for 30 min at 37 °C. The change in absorbance of released p-nitrophenolate was monitored at 405 nm, using a 96-well microplate reader (Thermo Scientific Multiskan GO, USA). All the experiments were repeated three times in a triplicate manner. […] The inhibition activity was calculated according to the following equation: Inhibition (%)=[(Blank−Sample)/Blank]×100
For calculation of the IC50 values, 6–8 serial dilutions were used and the results examined using the non-linear regression analysis of GraphPad Prism 5 [69].

MTT cell viability assay = type: cell-based; conditions: human, MG-63 osteosarcoma cells, MG-63 cells
Method: The human osteosarcoma MG-63 cells were acquired from the Korean Cell Line Bank (Seoul, Korea). The MG-63 cell lines were incubated in the humidified atmosphere at 37 °C containing 5% CO2 and maintained in the DMEM (Sigma, St. Louis, MO, USA), supplemented with 10% fetal bovine serum (FBS, WELGENE, Korea) and 50 unit/mL penicillin (Sigma) and 50 μg/mL streptomycin (Sigma). The medium was completely renewed every two days. The synthesized compounds were completely dissolved in dimethyl sulfoxide (DMSO) and further diluted to various concentrations (0, 0.5, 1, 2, and 4 µM). The control groups were treated with the same amount of DMSO. MTT assay technique was applied to check the toxic effect of our compounds. The MG-63 cell lines were seeded onto 96-well plates at a density of 0.4 × 10^5 cells/well with the medium for 24 h. After reaching 50% density, the cells were exposed to synthesized target compounds at the dose of 0, 0.5, 1, 2, and 4 µM for 24 h in media. […] After 24 h, the cell sustained 100 μL DMEM containing of 0.5 mg/mL 3-(4,5-dimethylthiazol-2-yl)-2,5-diphenyltetrazolium bromide (MTT) at 37 °C for 4 h. Then, the purple formazan crystals were dissolved with 100 μL of buffer (10% SDS, 0.01 N HCl). Finally, the absorbance was measured at 570 nm using a microplate reader (Thermo Fisher, Waltham, MA, USA).

[2] = tested on: tissue-specific isozymes (PLALP, GCALP, and IALP) versus L/B/K ALPs; set-up: method as in PMID 2178806; conditions: cited from earlier work
ALP = ALP inhibitors; cited from earlier work
[3] = molecular target: T1, calf intestinal alkaline phosphatase (CIAP); experiment: Kinetic mechanism analysis (Lineweaver-Burk plot); type: biochemical
Method: The inhibitor (7g), and substrate p-NPP concentrations were used at 0.00, 0.023, 0.045 and 0.091 µM, 10, 5, 2.5, 1.25, 0.625 and 0.3125 mM, respectively. The pre-incubation time and other conditions were the same as those mentioned in the section on the CIAP assay. Maximal initial velocities were determined from the initial linear portion of absorbances up to 10 min after the addition of enzyme per minute interval. The inhibition type of the enzyme was assayed by the Lineweaver–Burk plot of inverse velocities (1/V) versus the inverse of substrate concentration 1/[S] mM^−1. The EI dissociation constant Ki was determined by a secondary plot of 1/V versus inhibitor concentration.

[4] = DPPH free radical scavenging assay; conditions: 100 µg/mL
Method: Free radical scavenging activity was determined by modifying the method by DPPH assay. The assay solution composed of the 100 μL of DPPH (150 μM) and 20 μL of the sample (100 μg/mL) was introduced to gain the final volume of each well up to 200 μL with methyl alcohol. Then, it was incubated in the dark at room temperature for the following half-hour. Ascorbic acid (Vitamin C) was used as a reference inhibitor. The measurements were performed by using a microplate reader (Thermo Scientific Multiskan GO, USA) at 517 nm. Each experiment was carried out in triplicate.

T1 sequence (P19111 20-533): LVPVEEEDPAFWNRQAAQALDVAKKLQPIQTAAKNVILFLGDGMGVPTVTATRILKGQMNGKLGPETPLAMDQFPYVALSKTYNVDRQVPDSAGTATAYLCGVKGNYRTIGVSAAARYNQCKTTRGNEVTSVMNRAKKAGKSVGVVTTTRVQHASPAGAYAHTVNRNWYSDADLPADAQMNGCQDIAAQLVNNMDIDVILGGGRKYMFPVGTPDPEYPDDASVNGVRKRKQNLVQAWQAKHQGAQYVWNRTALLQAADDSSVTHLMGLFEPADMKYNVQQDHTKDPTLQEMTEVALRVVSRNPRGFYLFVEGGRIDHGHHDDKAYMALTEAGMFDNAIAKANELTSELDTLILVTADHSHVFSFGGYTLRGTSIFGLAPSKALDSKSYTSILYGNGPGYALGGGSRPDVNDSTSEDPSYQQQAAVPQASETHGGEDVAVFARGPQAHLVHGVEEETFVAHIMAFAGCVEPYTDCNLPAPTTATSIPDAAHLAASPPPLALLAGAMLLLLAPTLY

SMILES	IC50 [1] [µM]	melting point [°C]	other results
C#Cc1cccc(Nc2ncnc3cc(OCCOC)c(OCCOC)cc23)c1 [erlotinib, reference compound]			viability at 24 h, 2 µM (MTT cell viability assay; first three treatments (0.5, 1, 2 µM)): > 90%
CCOC(=O)C=C1SC(N2N=C(c3ccccc3)CC2c2ccc(C)cc2)=NC1=O (stereo not drawn) [Compound 7b, Ethyl-2-(4-oxo-2-(3-phenyl-5-(p-tolyl)-4,5-dihydro-1H-pyrazol-1-yl)thiazol-5(4H)-ylidene)acetate]	2.3 ± 0.151	226 to 228	
N[C@@H](Cc1ccccc1)C(=O)O [L-phenylalanine]			sensitivity of inhibition of tissue-specific isozymes (PLALP, GCALP, IALP) relative to L/B/K ALPs [2]: 30 times
CCOC(=O)C=C1SC(N2N=C(c3ccc(OC)cc3)CC2c2ccccc2)=NC1=O (stereo not drawn) [Compound 7j, Ethyl-2-(2-(3-(4-methoxyphenyl)-5-phenyl-4,5-dihydro-1H-pyrazol-1-yl)-4-oxothiazol-5(4H)-ylidene)acetate]	0.434 ± 0.011	167 to 169	viability at 24 h, 4 µM (MTT cell viability assay): ≤ 70%
CCOC(=O)C=C1SC(N2N=C(c3ccc(OC)cc3)CC2c2ccc(Cl)cc2Cl)=NC1=O (stereo not drawn) [Compound 7f, Ethyl-2-(2-(5-(2,4-dichlorophenyl)-3-(4-methoxyphenyl)-4,5-dihydro-1H-pyrazol-1-yl)-4-oxothiazol-5(4H)-ylidene)acetate]	0.566 ± 0.048	> 260	
CCOC(=O)C=C1SC(N2N=C(c3ccc(OC)cc3)CC2c2ccc(Br)cc2)=NC1=O (stereo not drawn) [Compound 7h, Ethyl-2-(2-(5-(4-bromophenyl)-3-(4-methoxyphenyl)-4,5-dihydro-1H-pyrazol-1-yl)-4-oxothiazol-5(4H)-ylidene)acetate]	0.907 ± 0.041	218 to 220	
c1ccc([C@H]2CN3CCSC3=N2)cc1 [levamisole]			Ki (ALP): 16 µM
Cn1c(=O)c2[nH]cnc2n(C)c1=O [theophylline]			Ki (ALP): 82 µM
CCOC(=O)C=C1SC(N2N=C(c3ccccc3)CC2c2ccccc2)=NC1=O (stereo not drawn) [Compound 7n, Ethyl-2-(2-(3,5-diphenyl-4,5-dihydro-1H-pyrazol-1-yl)-4-oxothiazol-5(4H)-ylidene)acetate]	2.99 ± 0.734	216 to 218	

Further compounds by falling IC50 [1], results first:

IC50 [1] [µM]	melting point [°C]	SMILES	other results
0.315 ± 0.017	210 to 212	CCOC(=O)C=C1SC(N2N=C(c3ccc(OC)cc3)CC2c2ccc(F)cc2)=NC1=O (stereo not drawn) [Compound 7i, Ethyl-2-(2-(5-(4-fluorophenyl)-3-(4-methoxyphenyl)-4,5-dihydro-1H-pyrazol-1-yl)-4-oxothiazol-5(4H)-ylidene)acetate]	
0.302 ± 0.004	220 to 222	CCOC(=O)C=C1SC(N2N=C(c3ccc(OC)cc3)CC2c2ccc(Cl)cc2)=NC1=O (stereo not drawn) [Compound 7m, Ethyl-2-(2-(5-(4-chlorophenyl)-3-(4-methoxyphenyl)-4,5-dihydro-1H-pyrazol-1-yl)-4-oxothiazol-5(4H)-ylidene)acetate]	viability at 24 h, 4 µM (MTT cell viability assay): ≤ 70%
0.293 ± 0.039	202 to 204	CCOC(=O)C=C1SC(N2N=C(c3ccccc3)CC2c2ccc(OCc3ccccc3)c(OC)c2)=NC1=O (stereo not drawn) [Compound 7d, Ethyl-2-(2-(5-(4-(benzyloxy)-3-methoxyphenyl)-3-phenyl-4,5-dihydro-1H-pyrazol-1-yl)-4-oxothiazol-5(4H)-ylidene)acetate]	
0.228 ± 0.012	208 to 210	CCOC(=O)C=C1SC(N2N=C(c3ccc(OC)cc3)CC2c2ccc(C)cc2)=NC1=O (stereo not drawn) [Compound 7e, Ethyl-2-(2-(3-(4-methoxyphenyl)-5-(p-tolyl)-4,5-dihydro-1H-pyrazol-1-yl)-4-oxothiazol-5(4H)-ylidene)acetate]	viability at 24 h, 4 µM (MTT cell viability assay): ≤ 70%
0.198 ± 0.018	236 to 238	CCOC(=O)C=C1SC(N2N=C(c3ccccc3)CC2c2ccc(OC)cc2)=NC1=O (stereo not drawn) [Compound 7c, Ethyl-2-(2-(5-(4-methoxyphenyl)-3-phenyl-4,5-dihydro-1H-pyrazol-1-yl)-4-oxothiazol-5(4H)-ylidene)acetate]	
0.075 ± 0.005	208 to 210	CCOC(=O)C=C1SC(N2N=C(c3ccc(OC)cc3)CC2c2ccc(OC)cc2)=NC1=O (stereo not drawn) [Compound 7k, Ethyl-2-(2-(3,5-bis(4-methoxyphenyl)-4,5-dihydro-1H-pyrazol-1-yl)-4-oxothiazol-5(4H)-ylidene)acetate]	
0.053 ± 0.001	242 to 244	CCOC(=O)C=C1SC(N2N=C(c3ccccc3)CC2c2ccc(Br)cc2)=NC1=O (stereo not drawn) [Compound 7a, Ethyl-2-(2-(5-(4-bromophenyl)-3-phenyl-4,5-dihydro-1H-pyrazol-1-yl)-4-oxothiazol-5(4H)-ylidene)acetate]	
0.051 ± 0.019	251 to 253	CCOC(=O)C=C1SC(N2N=C(c3ccccc3)CC2c2ccc(Cl)cc2)=NC1=O (stereo not drawn) [Compound 7l, Ethyl-2-(2-(5-(4-chlorophenyl)-3-phenyl-4,5-dihydro-1H-pyrazol-1-yl)-4-oxothiazol-5(4H)-ylidene)acetate]	
0.045 ± 0.004	228 to 230	CCOC(=O)C=C1SC(N2N=C(c3ccc(OC)cc3)CC2c2ccc(OCc3ccccc3)c(OC)c2)=NC1=O (stereo not drawn) [Compound 7g, Ethyl-2-(2-(5-(4-(benzyloxy)-3-methoxyphenyl)-3-(4-methoxyphenyl)-4,5-dihydro-1H-pyrazol-1-yl)-4-oxothiazol-5(4H)-ylidene)acetate]	fold more active than monopotassium phosphate (IC50 ratio) ([1]; versus standard reference monopotassium phosphate): 116 fold; Inhibition Type ([3]; Lineweaver-Burk plot, substrate p-NPP): non-competitively; also recorded: Non-Competitive; Vmax ([3]; inhibitor 7g concentration 0.023 µM): 0.0014 ΔA/Min; Vmax ([3]; inhibitor 7g concentration 0.045 µM): 0.0011 ΔA/Min; Vmax ([3]; inhibitor 7g concentration 0.091 µM): 0.0009 ΔA/Min; Ki ([3]; secondary plot of slope versus inhibitor concentration, read-out: Ki (EI dissociation constant)): 0.093 µM; Km ([3]; substrate p-NPP, inhibitor 7g concentration 0.023 µM): 500 µM; Km ([3]; substrate p-NPP, inhibitor 7g concentration 0.045 µM): 500 µM; Km ([3]; substrate p-NPP, inhibitor 7g concentration 0.091 µM): 500 µM; DPPH free radical scavenging (inhibition) [4]: 29.7%
